pIC50: −log10 of the molar value.
What was measured:
Balb/c mice = test: LPS-induced neutrophil accumulation in mice; assay type: in vivo; settings: for Neutrophil numbers in BAL / Neutrophil numbers in BAL (% inhibition): intra tracheal
Procedure: LPS-Induced Neutrophil Accumulation in Mice
Non-fasted Balb/c mice were dosed by the intra tracheal route with either vehicle, or the test substance at the indicated times (within the range 2-8 hr) before stimulation of the inflammatory response by application of an LPS challenge. At T=0, mice were placed into an exposure chamber and exposed to LPS. After a further 8 hr the animals were anesthetized, their tracheas cannulated and BALF extracted by infusing and then withdrawing from their lungs 1.0 mL of PBS via the tracheal catheter. Total and differential white cell counts in the BALF samples were measured using a Neubaur haemocytometer. Cytospin smears of the BALF samples were prepared by centrifugation at 200 rpm for 5 min at RT and stained using a DiffQuik stain system (Dade Behring). Cells were counted using oil immersion microscopy.

[1] = test system: ICAM-1 induction in BEAS2B cells; test: Poly I:C-induced ICAM-1 induction in BEAS2B cells; assay type: cell-based, human; settings: Homo sapiens, BEAS-2B, read-out: PolyIC/ICAM1 IC50 BEAS2B
Method in brief: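 IC50 reflects inhibition of cell-surface ICAM-1 relative to vehicle, read by ELISA (OD450 against 655 nm) and divided by crystal violet OD595 for cell number. Readings were taken 18 hr after transfection of 1 μg/mL poly I:C into BEAS2B cells. Compound was added 2 hr before stimulation.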

A/J mice = test: Cigarette smoke model; assay type: in vivo; settings: for inhibition of both macrophage and neutrophil accumulation into the BALF: animals previously exposed to cigarette smoke; for Cell numbers in BAL (% Inhibition), Macrophages / Cell numbers in BAL (% Inhibition), Neutrophils / Cell numbers in BAL, Macrophages / Cell numbers in BAL, Neutrophils: Table 8
Procedure: A/J mice (males, 5 weeks old) were exposed to cigarette smoke (4% cigarette smoke, diluted with air) for 30 min/day for 11 days using a Tobacco Smoke Inhalation Experiment System for small animals (Model SIS-CS; Sibata Scientific Technology, Tokyo, Japan). Test substances were administered intra-nasally (35 μL of solution in 50% DMSO/PBS) twice daily for 3 days after the final cigarette smoke exposure. At 12 hr after the last dosing, each of the animals was anesthetized, the trachea cannulated and bronchoalveolar lavage fluid (BALF) was collected. The numbers of alveolar macrophages and neutrophils were determined by FACS analysis (EPICS® ALTRA II, Beckman Coulter, Inc., Fullerton, Calif., USA) using anti-mouse MOMA2 antibody (macrophage) or anti-mouse 7/4 antibody (neutrophil).
The data for cell numbers are shown as the mean±SEM.

[2] = biological target: T1, p38 MAPKα isoform (MAPK14) (Homo sapiens, UniProt Q16539); test: Enzyme inhibition assay (FRET, Z-LYTE), p38 MAPKα via MAPKAP-K2 activation; assay type: biochemical; settings: read-out: Enzyme Inhibition IC50 p38α
T1 construct: purchased Invitrogen
T1 sequence (Q16539 whole entry, canonical isoform): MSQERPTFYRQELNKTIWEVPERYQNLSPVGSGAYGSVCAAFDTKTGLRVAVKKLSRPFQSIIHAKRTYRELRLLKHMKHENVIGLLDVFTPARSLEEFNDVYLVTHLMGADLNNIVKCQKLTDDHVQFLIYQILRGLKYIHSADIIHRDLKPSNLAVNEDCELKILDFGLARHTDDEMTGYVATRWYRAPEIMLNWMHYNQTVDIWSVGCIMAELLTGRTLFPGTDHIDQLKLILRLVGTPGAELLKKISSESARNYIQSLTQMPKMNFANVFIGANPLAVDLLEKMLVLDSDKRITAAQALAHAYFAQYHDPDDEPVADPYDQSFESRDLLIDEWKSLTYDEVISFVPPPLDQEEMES
Method in brief: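 Z-LYTE FRET format, in which protease cleaves only non-phosphorylated peptide, read after 1 h development. Compound was mixed with p38 MAPKα for 2 h at RT, and inhibition was gauged from MAPKAP-K2 activation/phosphorylation rather than directly. Percent inhibition against an uninhibited control was fitted to give IC50.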

[3] = Cigarette smoke + 0.064 μg/mL, intra-nasal twice daily 3 days
[4] = Table 7, Cigarette smoke + 8.0 μg/mL
[5] = Table 7, Cigarette smoke + 40 μg/mL
[6] = Table 7, Cigarette smoke + 200 μg/mL
[7] = Table 6, 0.2 mg/mL, 8 h pre-dose

`CNC(=O)Nc1cc(Oc2ccc(NC(=O)Nc3cc(C(C)(C)C)nn3-c3ccc(OC)cc3)c(Cl)c2Cl)ccn1` [Example 9, N-Methyl-N′-4-(4-(3-(3-tert-butyl-1-p-anisyl-1H-pyrazol-5-yl)ureido)-2,3-dichlorophen-1-yloxy)pyridin-2-ylurea] was tested. Which “Neutrophil numbers in BAL” value (Balb/c mice; 0.05 mg/mL, 2 hr pre-dose) did it give?
Its value is 14.98 ± 2.25 × 10^5/mL.

What about the “Neutrophil numbers in BAL (% inhibition)” value (Balb/c mice; 0.05 mg/mL, 2 hr pre-dose) of the same compound?
Its value is 11%.

What about the “Neutrophil numbers in BAL” value (Balb/c mice; 0.2 mg/mL, 2 hr pre-dose) of the same compound?
Its value is 8.75 ± 1.38 × 10^5/mL.

What about the “Neutrophil numbers in BAL (% inhibition)” value (Balb/c mice; 0.2 mg/mL, 2 hr pre-dose) of the same compound?
Its value is 48%.

And the “Neutrophil numbers in BAL” value (Balb/c mice; 0.2 mg/mL, 8 h pre-dose)?
The value was 13.44 ± 2.03 × 10^5/mL.

And the “Neutrophil numbers in BAL (% inhibition)” value (Balb/c mice; 0.2 mg/mL, 8 h pre-dose)?
Its value is 20%.

And the “Neutrophil numbers in BAL” value (Balb/c mice; 1.0 mg/mL, 2 hr pre-dose)?
The value was 5.80 ± 1.18 × 10^5/mL.

And the “Neutrophil numbers in BAL (% inhibition)” value (Balb/c mice; 1.0 mg/mL, 2 hr pre-dose)?
The value was 66%.

What about the “inhibition of neutrophil accumulation into the BALF” value (Balb/c mice; administered 2 hr prior to LPS challenge) of the same compound?
Its value is “dose-dependent inhibition”.

What about the “effects of treatment on neutrophil accumulation into the BALF” value (Balb/c mice; dosed 8 hr prior to the endotoxin challenge) of the same compound?
The value was “sustained and still detectable”.

What about the pIC50 [1] of the same compound?
Its pIC50 is 9.52.

What about the “Cell numbers in BAL (% Inhibition), Macrophage” value (A/J mice; [3]) of the same compound?
The value was 19%.

And the “Cell numbers in BAL (% Inhibition), Neutrophil” value (A/J mice; [3])?
Its value is 3%.

What about the “Cell numbers in BAL, Macrophage” value (A/J mice; [3]) of the same compound?
Its value is 16.2 ± 1.7 × 10^4/mL.

And the “Cell numbers in BAL, Neutrophil” value (A/J mice; [3])?
The value was 17.7 ± 2.5 × 10^4/mL.

What about the “Cell numbers in BAL (% Inhibition), Macrophage” value (A/J mice; Cigarette smoke + 0.32 μg/mL) of the same compound?
The value was 17%.

What about the “Cell numbers in BAL (% Inhibition), Neutrophil” value (A/J mice; Cigarette smoke + 0.32 μg/mL) of the same compound?
Its value is 16%.

What about the “Cell numbers in BAL, Macrophage” value (A/J mice; Cigarette smoke + 0.32 μg/mL) of the same compound?
The value was 16.5 ± 2.4 × 10^4/mL.

And the “Cell numbers in BAL, Neutrophil” value (A/J mice; Cigarette smoke + 0.32 μg/mL)?
The value was 15.5 ± 0.47 × 10^4/mL.

What about the “Cell numbers in BAL (% Inhibition), Macrophage” value (A/J mice; Cigarette smoke + 1.6 μg/mL) of the same compound?
The value was 19%.

And the “Cell numbers in BAL (% Inhibition), Neutrophil” value (A/J mice; Cigarette smoke + 1.6 μg/mL)?
Its value is 21%.

What about the “Cell numbers in BAL, Macrophage” value (A/J mice; Cigarette smoke + 1.6 μg/mL) of the same compound?
Its value is 16.2 ± 1.3 × 10^4/mL.

And the “Cell numbers in BAL, Neutrophil” value (A/J mice; Cigarette smoke + 1.6 μg/mL)?
Its value is 14.7 ± 1.6 × 10^4/mL.

And the “Cell numbers in BAL (% Inhibition), Macrophage” value (A/J mice; [4])?
The value was 39%.

And the “Cell numbers in BAL (% Inhibition), Neutrophil” value (A/J mice; [4])?
The value was 29%.

And the “Cell numbers in BAL, Macrophage” value (A/J mice; [4])?
The value was 13.1 ± 1.2 × 10^4/mL.

What about the “Cell numbers in BAL, Neutrophil” value (A/J mice; [4]) of the same compound?
Its value is 13.4 ± 1.4 × 10^4/mL.

What about the “Cell numbers in BAL (% Inhibition), Macrophage” value (A/J mice; [5]) of the same compound?
The value was 61%.

What about the “Cell numbers in BAL (% Inhibition), Neutrophil” value (A/J mice; [5]) of the same compound?
Its value is 42%.

And the “Cell numbers in BAL, Macrophage” value (A/J mice; [5])?
The value was 9.9 ± 1.6 × 10^4/mL.

And the “Cell numbers in BAL, Neutrophil” value (A/J mice; [5])?
The value was 11.2 ± 2.1 × 10^4/mL.

And the “Cell numbers in BAL (% Inhibition), Macrophage” value (A/J mice; [6])?
Its value is 85%.

What about the “Cell numbers in BAL (% Inhibition), Neutrophil” value (A/J mice; [6]) of the same compound?
Its value is 72%.

And the “Cell numbers in BAL, Macrophage” value (A/J mice; [6])?
Its value is 6.1 ± 0.93 × 10^4/mL.

What about the “Cell numbers in BAL, Neutrophil” value (A/J mice; [6]) of the same compound?
The value was 6.3 ± 0.79 × 10^4/mL.

And the “inhibition of both macrophage and neutrophil accumulation into the BALF” value (A/J mice)?
Its value is “dose-dependent inhibition”.

What about the pIC50 [2] of the same compound?
Its pIC50 is 7.72.

What does the source list for `COc1ccc(-n2nc(C(C)(C)C)cc2NC(=O)Nc2ccc(Oc3ccnc(NC(=O)N4CCCC4)c3)c(Cl)c2Cl)cc1` [Example 76, N-(4-(4-(3-(3-(tert-butyl)-1-(4-methoxyphenyl)-1H-pyrazol-5-yl)ureido)-2,3-dichlorophenoxy)pyridin-2-yl)pyrrolidine-1-carboxamide]?
% inhibition of Influx (Balb/c mice; [7]): 8%; Neutrophil numbers in BAL 8 h pre-dose (Balb/c mice; [7]): 12.94 ± 2.41 × 10^5/mL; inhibitory effects versus neutrophil influx into the BALF (Balb/c mice; dosed 8 hr before the inflammatory stimulus): inhibitory effects; pIC50 [1]: 9.52; Cell numbers in BAL (% Inhibition), Macrophages (A/J mice; Cigarette smoke + 8.0 μg/mL): 57%; Cell numbers in BAL (% Inhibition), Neutrophils (A/J mice; Cigarette smoke + 8.0 μg/mL): 52%; Cell numbers in BAL, Macrophages (A/J mice; Cigarette smoke + 8.0 μg/mL): 8.5 ± 0.35 × 10^4/mL; Cell numbers in BAL, Neutrophils (A/J mice; Cigarette smoke + 8.0 μg/mL): 9.6 ± 0.48 × 10^4/mL; Cell numbers in BAL (% Inhibition), Macrophages (A/J mice; Cigarette smoke + 40 μg/mL): 84%; Cell numbers in BAL (% Inhibition), Neutrophils (A/J mice; Cigarette smoke + 40 μg/mL): 66%; Cell numbers in BAL, Macrophages (A/J mice; Cigarette smoke + 40 μg/mL): 5.3 ± 0.36 × 10^4/mL; Cell numbers in BAL, Neutrophils (A/J mice; Cigarette smoke + 40 μg/mL): 7.4 ± 0.76 × 10^4/mL; Cell numbers in BAL (% Inhibition), Macrophages (A/J mice; Cigarette smoke + 200 μg/mL): 97%; Cell numbers in BAL (% Inhibition), Neutrophils (A/J mice; Cigarette smoke + 200 μg/mL): 86%; Cell numbers in BAL, Macrophages (A/J mice; Cigarette smoke + 200 μg/mL): 3.6 ± 0.39 × 10^4/mL; Cell numbers in BAL, Neutrophils (A/J mice; Cigarette smoke + 200 μg/mL): 4.0 ± 0.49 × 10^4/mL; inhibition of both macrophage and neutrophil accumulation into the BALF (A/J mice): dose-dependent inhibition; pIC50 [2]: 7.68

Source: US10000471B2, “Pyrazole P38 map kinase inhibitors” (Respivert Limited, priority 2010, dated 2018)
